The record followed here is patent US20130196999A1, “METHODS OF CONTROLLING NEONICOTINOID RESISTANT APHIDS” (SYNGENTA CROP PROTECTION LLC, priority 2010, published 2013).

For data set [1], the system named is neonicotinoid insecticide resistant aphid strain. Nature of the data set: Leaf disc spray bioassay, aphid mortality, resistant strain. Particulars: for LC50 with 95% confidence limit, resistant strain: mixed age aphids on chinese cabbage leaf discs, Potter Tower spray, mortality 72 hours after treatment, strain collected from peach orchard, Avignon region, 2009. It is filed as in vivo, aphids. The procedure:
(§1) The following bioassay methodology was utilized to generate the data included in the table:
(§2) 5 cm leaf discs were taken from fully expanded chinese cabbage leaves and placed with the underside facing upwards onto water agar in 5 cm Petri dishes. The leaf discs are infested with between 30 and 40 mixed age aphids 24 hours prior to insecticide treatment. The leaf surface is sprayed with the appropriate test solutions in a Burkhard Potter Tower at an approximate water volume of […]. Test containers are stored at 21° C., 60% RH and 16:8 light/dark. Aphids were assessed for mortality 72 hours after treatment.

Data set [2] deals with neonicotinoid insecticide susceptible strain 4106A. Nature of the data set: Leaf disc spray bioassay, aphid mortality, susceptible strain. It is filed as in vivo. The conditions noted are these: mixed age aphids on chinese cabbage leaf discs, Potter Tower spray, mortality 72 hours after treatment; strain 4106A from Rothamsted Research. The procedure:
as §1, §2

Regarding `CC1=NNC(=O)N(N=Cc2cccnc2)C1` [pymetrozine, 4,5-dihydro-6-methyl-4-(3-pyridylmethyleneamino)-1,2,4-triazin-3(2H)-one], in data set [1], the “LC50 with 95% confidence limit, resistant strain” value is listed as 3.07 (0.97-6.59) ppm. The “cross-resistance with neonicotinoid insecticides” value in data set [1] (neonicotinoid resistant populations of aphids) is recorded as “no cross-resistance”. Also, the “LC50 with 95% confidence limit, susceptible strain” value in data set [2] is reported as 0.52 (0.4-0.66) ppm.
With `CN1COCN(Cc2cnc(Cl)s2)/C1=N\[N+](=O)[O-]` [thiamethoxam, reference compound], in data set [1], the “LC50 with 95% confidence limit, resistant strain” value is 148 (128-172) ppm. In data set [2], the “LC50 with 95% confidence limit, susceptible strain” value is 0.35 (0.3-0.41) ppm.
